The results in this text go back to ChEMBL document CHEMBL1201862, “PubChem BioAssay data set” (2004).

Holding throughout (assay): NCI tumour cell line growth inhibition, 48 h
The subject of test [1] is HCT-116.
For test [2], the system named is SF-295.
Test [3] concerns NCI-H226.
Test [4] relates to DU-145.
Test [5] deals with K562.
The subject of test [6] is LOX IMVI.
Test [7] deals with UACC-62.
Test [8] deals with SNB-19.
Test [9] relates to CCRF-CEM.
The subject of test [10] is A498.
Test [11] concerns NCI/ADR-RES.
Test [12] deals with KM12.
Test [13] relates to T47D.
The test system of test [14] is HT-29.
Test [15] has as its system HCT-15.
Test [16] relates to SR.
The test system of test [17] is 786-0.
The test system of test [18] is HCC 2998.
Test [19] has as its system NCI-H23.
The subject of test [20] is HOP-92.

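How tested: cells in 96-well plates exposed to compound for 48 hours at five concentrations. At the GI50, growth is halved.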 Activity calls are given as the source filed them. Rule as the data show it: active = GI50 up to about 1.1 µM and inactive = higher. A value given as a limit tells only on which side of the number the result lay.

Regarding `COc1ccccc1NC(=S)Nc1cc(C)ccn1`, the GI50 in test [1], in test [2], in test [3], in test [4], in [5] and in test [6] was > 100 µM (inactive) in each case. In addition, the GI50 in [7], in test [8], in test [9], in test [10], in test [11] and in [12] was > 100 µM (inactive) in each case. Further, the GI50 is > 100 µM (inactive) in [13]; > 100 µM (inactive) in test [14]; above 100 µM in test [15]; > 100 µM (inactive) in [16]; > 100 µM (inactive) in [17].

Consider `CC(=O)c1c2c(cc3c1CCC3)CCC2`, for which the GI50 is > 100 µM (inactive) in [18]; 70.3 µM (inactive) in test [1]; > 100 µM (inactive) in test [2]; 82 µM (inactive) in [3]; > 100 µM (inactive) in test [4]; 20.7 µM (inactive) in test [5]. The GI50 in [6] is > 100 µM (inactive); in test [7], > 100 µM (inactive); in test [8] it was > 100 µM (inactive); in test [9] it was 40.7 µM (inactive); in test [10], 36.5 µM (inactive); in test [11], > 100 µM (inactive). Moreover, the GI50 in [12] is > 100 µM (inactive); in test [19] it was > 100 µM (inactive); in test [13], 15.4 µM (inactive); in test [14], > 100 µM (inactive); in [15], above 100 µM; in test [16], > 100 µM (inactive). Moreover, the GI50 in [17] is > 100 µM (inactive).

In the case of `CCCC(Sc1nc(N)nc2nc[nH]c12)C(=O)O` (centres undefined), the GI50 in [18] was 34.3 µM (inactive); in test [1], 42.1 µM (inactive); in test [2] it was 59.7 µM (inactive); in test [3], > 100 µM (inactive); in [4], 57.9 µM (inactive); in [5], 37.7 µM (inactive). Further, the GI50 in [6] is 34.5 µM (inactive); in [7], 36.6 µM (inactive); in [8] it was > 100 µM (inactive); in [20], > 100 µM (inactive); in [9] it was 81.5 µM (inactive); in test [10], > 100 µM (inactive). Moreover, the GI50 in test [11] was 41.9 µM (inactive); in test [12], > 100 µM (inactive); in test [19], > 100 µM (inactive); in test [13], > 100 µM (inactive); in [14], 78.5 µM (inactive); in test [15], 91.6 µM. In addition, the GI50 in test [17] was 92.5 µM (inactive).

As for `Nc1ccc(Nc2cc(O)nc(O)n2)cc1`, the GI50 in [18], in test [1], in test [2], in [3], in test [4] and in [5] was > 100 µM (inactive) throughout. Moreover, the GI50 in test [6], in [7], in test [8], in [9], in test [10] and in [11] was > 100 µM (inactive) each time. Moreover, the GI50 in [12] is > 100 µM (inactive); in [19] it was > 100 µM (inactive); in test [13] it was 39.3 µM (inactive); in test [14], > 100 µM (inactive); in [15] it was above 100 µM; in test [16] it was > 100 µM (inactive). Besides, the GI50 in [17] is > 100 µM (inactive).
